Where two headings read alike, the source gives them in different places.
Legend:
Format in all cases: in vivo
[1] = test system: Blumeria graminis f. sp. hordei; Synonym: Erysiphe graminis f. sp. hordei; test: Barley powdery mildew (ERYSGH) disease control; conditions: 24 h, 1 Day Protectant, high volume, read-out: Disease Control ERYSGH 1 DP
Procedure: (§1) Technical grades of materials were dissolved in acetone, which were then mixed with nine volumes of water containing 110 ppm Triton X-100. The fungicide solutions were applied onto wheat seedlings using an automated booth sprayer to run-off. All sprayed plants were allowed to air dry prior to further handling. All fungicides were evaluated using the aforementioned method for their activity vs. all target diseases. Wheat leaf blotch and brown rust activity were also evaluated using track spray applications, in which case the fungicides were formulated as EC formulations, containing 0.1% Trycol 5941 in the spray solutions. Barley seedlings (variety Harrington) were propagated in soil-less Metro mix, with each pot having 8 to 12 plants, and used in the test when first leaf was fully emerged. Test plants were inoculated by dusting with infected stock plants 24 hr after fungicide treatments. After inoculation the plants were kept in a greenhouse set at 20° C. for disease to develop. Fungicide formulation, application and disease assessment on the sprayed leaves followed the procedures as described in the Example A.

[2] = test system: Alternaria solani; test: Tomato early blight (ALTESO) disease control; conditions: 24 h, 1 Day Protectant, high volume, read-out: Disease Control ALTESO 1 DP
Procedure: Technical grades of materials were dissolved in acetone, which were then mixed with nine volumes of water containing 110 ppm Triton X-100. The fungicide solutions were applied onto wheat seedlings using an automated booth sprayer to run-off. All sprayed plants were allowed to air dry prior to further handling. All fungicides were evaluated using the aforementioned method for their activity vs. all target diseases. Wheat leaf blotch and brown rust activity were also evaluated using track spray applications, in which case the fungicides were formulated as EC formulations, containing 0.1% Trycol 5941 in the spray solutions. Tomato plants (variety Outdoor girl) were propagated in soil-less Metro mix, with each pot having one plant, and used when 12 to 14 days old. Test plants were inoculated with an aqueous spore suspension of Alternaria solani 24 hr after fungicide treatments. After inoculation the plants were kept in 100% relative humidity (one day in a dark dew chamber followed by two to three days in a lighted dew chamber at 20° C.) to permit spores to germinate and infect the leaf. The plants were then transferred to a growth room at 22° C. for disease to develop. Fungicide formulation, application and disease assessment on the sprayed leaves followed the procedures as described in the Example A.

[3] = test system: Magnaporthe grisea; Anamorph: Pyricularia oryzae; test: whole plant or invertebrate; conditions: 24 h, read-out: PYRIOR 1 DP disease control
[4] = test system: Phakopsora pachyrhizi; test: Asian soybean rust (PHAKPA) disease control; conditions: topical, high volume
Procedure, shortened: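 Compounds in acetone diluted with nine volumes water containing 0.011% Tween 20, sprayed to run-off on two-week-old Williams 82 soybean seedlings, inoculated 3 days before or 1 day after treatment. Plants held 24 h in dark dew room at 22 °C, 100% RH, then at 23 °C; disease severity scored on sprayed leaves.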

[5] = test system: Cercospora beticola; test: Leaf spot of sugar beets (CERCBE) disease control; conditions: 24 h, 1 Day Protectant, high volume, read-out: Disease Control CERCBE 1 DP
Procedure: Technical grades of materials were dissolved in acetone, which were then mixed with nine volumes of water containing 110 ppm Triton X-100. The fungicide solutions were applied onto wheat seedlings using an automated booth sprayer to run-off. All sprayed plants were allowed to air dry prior to further handling. All fungicides were evaluated using the aforementioned method for their activity vs. all target diseases. Wheat leaf blotch and brown rust activity were also evaluated using track spray applications, in which case the fungicides were formulated as EC formulations, containing 0.1% Trycol 5941 in the spray solutions. Sugar beet plants (variety HH88) were grown in soil-less Metro mix and trimmed regularly to maintain a uniform plant size prior to test. Plants were inoculated with a spore suspension 24 hr after fungicide treatments. Inoculated plants were kept in a dew chamber at 22° C. for 48 hr then incubated in a greenhouse set at 24° C. under a clear plastic hood with bottom ventilation until disease symptoms were fully expressed. Fungicide formulation, application and disease assessment on the sprayed leaves followed the procedures as described in the Example A.

[6] = test system: Rhyncosporium secalis; test: Barley scald (RHYNSE) disease control; conditions: 24 h, High volume application, 1 Day Protectant, read-out: RHYNSE 1 DP disease control
Procedure: as §1, with “inoculated by an aqueous spore suspension of Rhyncosporium secalis 24 hr” for “inoculated by dusting with infected stock plants 24 hr”, “kept in a dew room at 20° C. with 100% relative humidity for 48 hr. The plants were then transferred to a greenhouse” for “kept in a greenhouse”

[7] = test system: Mycosphaerella graminicola; Anamorph: Septoria tritici; test: Leaf blotch of wheat (SEPTTR) disease control on wheat seedlings; conditions: Zymoseptoria tritici, High volume application, 100 ppm
Procedure, shortened: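 Protective or curative format: Septoria tritici inoculation either preceded or followed fungicide application to first-leaf Yuma wheat. Severity scored 0–100%; control expressed versus untreated.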

[8] = 24 h, 1 Day Protectant, read-out: Disease Control PHAKPA 1DP
[9] = 72 h, 3 Day Curative, read-out: Disease Control PHAKPA 3DC
[10] = 24 h, 1 Day Protectant, read-out: SEPTTR 1DP disease control
[11] = 72 h, 3 Day Curative, read-out: SEPTTR 3DC disease control

| SMILES | pest or weed control at 100 ppm [1] | pest or weed control at 100 ppm [2] | pest or weed control at 100 ppm [3] | pest or weed control at 25 ppm [4, 8] | pest or weed control at 25 ppm [4, 9] | pest or weed control at 100 ppm [5] | pest or weed control at 100 ppm [6] | pest or weed control at 100 ppm [7, 10] | pest or weed control at 100 ppm [7, 11] |
| --- | --- | --- | --- | --- | --- | --- | --- | --- | --- |
| COc1ccnc(C(=O)N[C@H]2CCC[C@H](Oc3ccccc3)[C@@H](OCC(C)C)[C@H](C)OC2=O)c1OCOC(C)=O [F28] | 80 to 100% | 0 to 80% | 80 to 100% | 80 to 100% | 0 to 80% | 80 to 100% | 80 to 100% | 80 to 100% | 80 to 100% |
| COc1ccnc(C(=O)N[C@H]2CCC[C@H](OCC(C)C)[C@@H](OC3CCCC3)[C@H](C)OC2=O)c1OCOC(C)=O [F39] | 80 to 100% | 80 to 100% | 80 to 100% | 80 to 100% | 80 to 100% | 80 to 100% | 80 to 100% | 80 to 100% | 80 to 100% |
| COc1ccnc(C(=O)N[C@H]2CCC[C@H](Oc3ccccc3)[C@@H](OCCCc3ccccc3)[C@H](C)OC2=O)c1OCOC(C)=O [F130] | 0 to 80% | 80 to 100% | 80 to 100% | 80 to 100% | 0 to 80% | 80 to 100% | 80 to 100% | 80 to 100% | 80 to 100% |
| CCCO[C@H]1CCC[C@H](NC(=O)c2nccc(OC)c2OCOC(C)=O)C(=O)O[C@@H](C)[C@@H]1Oc1ccccc1 [F138] | 0 to 80% | 80 to 100% | 80 to 100% | 80 to 100% | 80 to 100% | 80 to 100% | 80 to 100% | 80 to 100% | 80 to 100% |
| CCCO[C@H]1CCC[C@H](NC(=O)c2nccc(OC)c2OCOC(=O)C(C)C)C(=O)O[C@@H](C)[C@@H]1Oc1ccccc1 [F139] | < 0% | 80 to 100% | 80 to 100% | 80 to 100% | 80 to 100% | 80 to 100% | 80 to 100% | 80 to 100% | 80 to 100% |
| CCCO[C@H]1CCC[C@H](NC(=O)c2nccc(OC)c2OC(=O)CCOC)C(=O)O[C@@H](C)[C@@H]1Oc1ccccc1 [F140] | 0 to 80% | 80 to 100% | 80 to 100% | 80 to 100% | 80 to 100% | 80 to 100% | 80 to 100% | 80 to 100% | 80 to 100% |

Reference: patent publication US9681664B2, “Macrocyclic picolinamides as fungicides” (Dow Agrosciences LLC, priority 2012, dated 2017)
